Experiments:
[1] = test system: five compendial organisms; experiment: Microbial growth inhibition, room temperature storage, summary over all test organisms; type: cell-based
Protocol: (§1) Amifostine was studied for its ability to inhibit microbial growth. Clear 10 cc vials, stoppers and seals were sterilized for use in the study. Two separate procedures were performed: a refrigerated storage study (2° to 8° C.) and a room temperature storage study (20° to 25° C.). For each test portion, positive controls were prepared for each organism by placing 9.5 mL sterile 0.9% sodium chloride into separate sterile vials and inoculating each with 10^3 to 10^4 of one of the test organisms. In addition, amifostine test specimens were prepared for each test portion by reconstituting six Ethyol® vials with 0.9% sodium chloride, the contents of each of these vials were then transferred to clear sterile vials to allow for easier visual examination. One vial was designated as a negative control, and each of the remaining five vials was inoculated with 10^3 to 10^4 of one of the test organisms. All vials were protected from light throughout the test to simulate the amber Ethyol® vial.
Positive controls, product test specimens, and a negative control were prepared. At this time, population counts were performed on each positive control. Population counts were also performed on positive controls and product test specimens at 24 and 48 hours. These samples were diluted with sterile water and plated in duplicate with a target of 30 to 300 colonies per plate. […]

[2] = test system: oral mucosa of mice; conditions: topical in carbowax to oral mucosa; cited from earlier work
[3] = test system: rectal wall of rats; conditions: intrarectal injection of 2% amifostine gel; cited from earlier work
[4] = test system: inferior lip mucosa of the mice; experiment: Radiation-induced mucositis in mice (inferior lip mucosa model, Parkins score); type: in vivo, C57BL/6 mice; conditions: for maximum grade of mucosal reactions: Parkins score
Protocol: (§2) The experimental murine model was developed by Parkins et al., Radiother. […] C57BL/6 mice 8-10 weeks old were used and fed with semi-liquid food. Unanesthetized mice were maintained in supine position and irradiated exclusively on the tip of the mouth. […] J. Radiat. Oncol. Biol. Phys., 8, 145-148 (1982). The irradiation was performed with an RT 250 Phillips apparatus, delivering 1.98 Gy/min (200 kV, 20 mA, filter of 0.2 mm Cu). During irradiation, a constant normobaric air renewal was maintained.
(§3) For the systemic applications, amifostine was dissolved in a […] solution 5 minutes before systemic IP injection of 200 to 400 mg/kg, which was administered 30 minutes before irradiation. A placebo solution of […] was used for a control group. For the topical applications, 50 mg of amifostine was dissolved in 1 mL of a solution containing 1% stearate, 5% H2O, and ammonia to adjust the pH of the solution to 8.8. The topical application was administered to the lip mucosa of the mice for a period of 30 minutes before each radiation session, and was maintained throughout the duration of irradiation. A single dose of 16.5 Gy, and a fractionated schedule delivering 24 Gy in 4 fractions over 2 days (with 8 hour intervals between fractions) were administered.
(§4) Four groups of eight mice were scored and weighed each day. Any mice having lost 30% or more of the initial weight was sacrificed. The effect of mucositis and weight loss were compared at the maximum of the acute reactions (day 11) among the different groups receiving or not receiving amifostine treatments, using the Mann and Whitney test.

[5] = as above; type: in vivo, C57BL/6 mice; conditions: C57BL/6, mouse, in vivo; IP, given before each fraction of radiation, mice; read-out: maximum tolerated dose
Protocol: as §2, §3, §4

[6] = test system: mouse skin; conditions: cited from earlier work
[7] = test system: Aspergillus niger; experiment: Microbial growth inhibition, room temperature storage (20°-25° C.); type: cell-based; conditions: A. niger, room temperature 20°-25° C.; for % Change: vs theoretical 0 hr count
Protocol: as §1
(§5) Positive controls, product test specimens, and a negative control were prepared. At this time, population counts were performed on each positive control. Population counts were also performed on positive controls and product test specimens at 24 and 48 hours. These samples were diluted with sterile water and plated in duplicate with a target of 30 to 300 colonies per plate. Candida albicans, Escherichia coli, Pseudomonas aeruginosa, and Staphylococcus aureus were overpoured with TSA agar and incubated at 30-35° C. for 48 hours. Aspergillus niger was overpoured with Sabouraud agar and incubated at 20-25° C. for 48 hours.

[8] = test system: intestinal mucosa in patients; conditions: enema in Proctofoam, 100 to 450 mg, 45 minutes prior to pelvic radiation; cited from earlier work
[9] = test system: Candida albicans; experiment: Microbial growth inhibition, refrigerated storage (2°-8° C.); type: cell-based; conditions: refrigerated 2°-8° C.; for % Change: vs theoretical 0 hr count
Protocol: as §1
as §5, with “at 24, 48” for “at 24”, “and 72” for “and 48”

[10] = test system: Escherichia coli; experiment: as above; type: cell-based; conditions: E. coli, refrigerated 2°-8° C.; for % Change: vs theoretical 0 hr count
Protocol: as §1
as §5, with “at 24, 48” for “at 24”, “and 72” for “and 48”

[11] = test system: Pseudomonas aeruginosa; experiment: as above; type: cell-based; conditions: P. aeruginosa, refrigerated 2°-8° C.; for % Change: vs theoretical 0 hr count
Protocol: as §1
as §5, with “at 24, 48” for “at 24”, “and 72” for “and 48”

[12] = test system: Staphylococcus aureus; experiment: as above; type: cell-based; conditions: S. aureus, refrigerated 2°-8° C.; for % Change: vs theoretical 0 hr count
Protocol: as §1
as §5, with “at 24, 48” for “at 24”, “and 72” for “and 48”

[13] = test system: Aspergillus niger; experiment: as above; type: cell-based; conditions: A. niger, refrigerated 2°-8° C.; for % Change: vs theoretical 0 hr count
Protocol: as §1
as §5, with “at 24, 48” for “at 24”, “and 72” for “and 48”

[14] = test system: murine skin; conditions: gauze with 10% solution in saline on murine skin 15 to 60 minutes, then 137Cs irradiation; cited from earlier work

NCCCNCCSP(=O)(O)O [amifostine, S-2-(3-aminopropylamino)ethyl dihydrogen phosphorothioate]
concentration of viable microorganisms at 24 hours [1]: reduced in four of the five compendial organisms | toxicity at the dosages tested [2]: no toxicity observed | tissue level of metabolite WR-1065 after topical application [3]: accumulation of the amifostine metabolite WR-1065 in the rectal wall | maximum grade of mucosal reactions ([4]; 200 mg/kg IP 30 min before irradiation, 24 Gy in 4 fractions over 2 days, day 11, ± standard error): 3.5±0.2 | maximum grade of mucosal reactions ([4]; 400 mg/kg IP 30 min before irradiation, 24 Gy in 4 fractions over 2 days, day 11, ± standard error): 2.5±0.4 | grades of mucosal reactions compared to the control group ([4]; single dose of 16.5 Gy, IP and topical amifostine groups): significantly lower | maximum grade of mucositis ([4]; topical 50 mg/mL solution pH 8.8 on lip mucosa 30 min before and during irradiation, 24 Gy in 4 fractions over 2 days, day 11, ± standard error): 3.9±0.2 | MTD at 2 days [5]: 400 mg/kg | radioprotective effect, topically applied ([6]; paste (aqueous sodium bicarbonate pH 7 and Unibase) on mouse skin, any dose studied): no radioprotective effect | radioprotective effect, systemically administered ([6]; systemic administration, mice): effective in reducing the severity of radiation damage | CFU/mL in Amifostine ([7]; 24 hr): 1.56 × 10^7 CFU/mL | % Change ([7]; 24 hr): +58.3% | CFU/mL in Amifostine ([7]; 48 hr): 3.52 × 10^6 CFU/mL | % Change ([7]; 48 hr): −61.3% | rectal mucosal damage, test group vs control group [8]: no significant differences | CFU/mL in Amifostine ([9]; 24 hr): 3.99 × 10^3 CFU/mL | % Change ([9]; 24 hr): −63.0% | CFU/mL in Amifostine ([9]; 48 hr): 2.09 × 10^3 CFU/mL | % Change ([9]; 48 hr): −80.6% | CFU/mL in Amifostine ([9]; 72 hr): 7.13 × 10^3 CFU/mL | % Change ([9]; 72 hr): −34.0% | CFU/mL in Amifostine ([10]; 24 hr): 2.85 × 10^2 CFU/mL | % Change ([10]; 24 hr): −70.0% | CFU/mL in Amifostine ([10]; 48 hr): 0 CFU/mL | % Change ([10]; 48 hr): −100% | CFU/mL in Amifostine ([10]; 72 hr): 0 CFU/mL | % Change ([10]; 72 hr): −100% | CFU/mL in Amifostine ([11]; 24 hr): 3.04 × 10^3 CFU/mL | % Change ([11]; 24 hr): −20.0% | CFU/mL in Amifostine ([11]; 48 hr): 1.76 × 10^3 CFU/mL | % Change ([11]; 48 hr): −53.7% | CFU/mL in Amifostine ([11]; 72 hr): 1.85 × 10^3 CFU/mL | % Change ([11]; 72 hr): −51.3% | CFU/mL in Amifostine ([12]; 24 hr): 4.75 × 10^1 CFU/mL | % Change ([12]; 24 hr): −50.0% | CFU/mL in Amifostine ([12]; 48 hr): 4.75 × 10^1 CFU/mL | % Change ([12]; 48 hr): −50.0% | CFU/mL in Amifostine ([12]; 72 hr): 4.75 × 10^1 CFU/mL | % Change ([12]; 72 hr): −50.0% | CFU/mL in Amifostine ([13]; 24 hr): 1.78 × 10^5 CFU/mL | % Change ([13]; 24 hr): −40.7% | CFU/mL in Amifostine ([13]; 48 hr): 1.67 × 10^5 CFU/mL | % Change ([13]; 48 hr): −44.3% | CFU/mL in Amifostine ([13]; 72 hr): 1.67 × 10^5 CFU/mL | % Change ([13]; 72 hr): −44.3% | radioprotective effect, topically applied [14]: no significant radioprotective effects

Reference: patent US6753323B2, “Topical administration of amifostine and related compounds” (MedImmune Oncology, Inc., priority 1998, dated 2004)
